Data on one molecule can be found in article PMC11206766, “QbD-Based Development and Evaluation of Pazopanib Hydrochloride Extrudates Prepared by Hot-Melt Extrusion Technique: In Vitro and In Vivo Evaluation” (Pharmaceutics, 2024).

Structures are written as SMILES.

For data set [1] the following is noted: cited from earlier work.
Data set [2] in a line: Oral pharmacokinetic / bioavailability study in rabbits. The data set is classed as in vivo, New Zealand white rabbits. The following applies: rabbit, equivalent to 200 mg pazopanib. Here is the method:
A bioavailability study was carried out to assess the drug absorption and pharmacokinetic parameters of different prepared formulations. A suitable animal was selected, and in vivo studies were performed in accordance with the ethical guidelines for animal care and use committee.
New Zealand white rabbits (Species and strain: […]) (5–6 months older, 2.0 ± 0.2 kg, 34–50 cm without tail) were utilized in this study. Animals were maintained at standard environmental conditions of temperature 24 ± 2 °C, humidity (55 ± 5%), under 12:12 h light (08:00–20:00 h)/dark cycle. Animals had free access to rodent chow and tap water ad libitum. Approval for animal studies was gained by the Institutional Animal Ethics Committee (Protocol no. IAEC; 1888/PO/Re/S/16/ CPCSEA/2022/01), constituted for the purpose of control and supervision of experimental animals and agreed with the globally acknowledged Principles for Laboratory Animal Use and Care as indicated by the National Institutes of Health Guide (NIH Publication No. 85–23, revised 1985). Animals were naive to drug treatments and experimentation, at the beginning of all studies. All tests were conducted at BM College of Pharmaceutical Education and Research (BMCPER), Indore, M.P. between 09:00 and 18:00 h.
Animals (n = 3) were settled into three different groups. First group (control) received Pazopanib drug (control), second group received the marketed pazopanib hydrochloride immediate release tablet (Votrient Tablets, 200 mg), while third group received drug formulations (equivalent to 200 mg of Pazopanib) prepared using HME technique, respectively. Dosage forms were administered orally via gastric intubation. Animals were fasted for 12 h with free access to water prior to drug administration. Rabbits were held in rabbit restrainers during blood sampling. Blood samples were collected in heparinized tubes from ear veins at predetermined time points (0, 0.5, 1, 2, 3, 4, 6, 8, 12, and 24 h) after oral administration. Plasma samples were obtained following centrifugation of blood at 3200× g for 5 min at 2–8 °C and kept frozen at −70 °C until analysis.
Pazopanib plasma concentration was plotted against time to obtain the concentration–time profiles, which were used to determine the peak blood concentration (Cmax) and time to achieve the peak concentration (Tmax). Non-compartmental pharmacokinetic analysis was conducted to calculate the area under the curve from 0 to 24 h [(AUC)0-24). The values of Cmax and Tmax for the test preparation were obtained by actual observations. All data were presented as mean ± standard deviation. In order to determine the area under the curve from 0 to 24 h, a non-compartmental PK study was performed using Win-Nonlin PK/PD software (version 8.1). Comparative blood plasma concentration (µg/mL) at different time points for Pazopanib drug and its formulation are depicted in below Figure 24.

The mark [3] stands for this setting: oral via gastric intubation, fasted, plasma.

A word on the log P: it is the decadic logarithm of the partition coefficient of the neutral form, usually between octanol and water. As usually defined, the pKa is the negative logarithm of the acid dissociation constant. As usually defined, the Cmax is the highest concentration seen after dosing. What is called Tmax is the time at which the peak concentration occurs. For the molecule `Cc1ccc(Nc2nccc(N(C)c3ccc4c(C)n(C)nc4c3)n2)cc1S(N)(=O)=O.Cl` [PZB-Drug/API, Pazopanib Hydrochloride], in data set [1], the BCS class entry is listed as “BCS class II”, the “log P” value was 3.55 and the pKa is on record as 2.5. Further, in data set [2] (setting [3]), the Cmax amounted to 44700 ng/mL and the Tmax is listed as 2 h. Besides, in data set [2] (oral), the T lag was 0 h. The “AUC Last” value in data set [2] (oral, 0 to 24 h, non-compartmental) turned out to be 308.675 µg·h/mL. The “C Last” value in data set [2] (oral, last sampling 24 h) worked out at 7.6 µg/mL.
